From patent US20260167622A1, “PAN-KRAS DEGRADING AGENT, AND PREPARATION METHOD THEREFOR AND USE THEREOF” (LEADINGTAC PHARMACEUTICAL (SHAOXING) CO., LTD., priority 2022, published 2026)

Columns and labels:
Assay type in all cases: cell-based
[1] = target: T1, KRAS G12V protein in SW900 cells (Homo sapiens, UniProt P01116, G12V); experiment: KRAS degradation assay (Western Blot) in SW900 cells; conditions: 24 h
T1 construct: endogenous in cells; host or cells: SW900
How it was run: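 AsPc-1, A427, DLD-1 and SW900 cells (5×10^5/well) were treated 24 h at 37 °C with compound at 0.03-3000 nM final (0.25% DMSO). KRAS in lysates was detected by Western blot (5 μg protein, ECL), normalized to β-actin and compared with control to derive DC50 and Dmax.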

[2] = system: KRAS G12D mutant human lung cancer cell A427; experiment: 3D cell proliferation inhibition assay, A427; conditions: A-427, 168 h, 3D culture, 7 days, CTG
Text: (§1) Test Example 6: 3D Cell Proliferation Inhibition Assay
(§2) The inhibitory effects of the compounds on 3D cell proliferation were investigated on KRAS G12C mutant human non-small cell lung cancer cell NCI-H358, KRAS G12D mutant human lung cancer cell A427, KRAS G12D mutant human gastric cancer cell AGS, KRAS G12D mutant human metastatic pancreatic cancer cell AsPc-1, KRAS G12V mutant human lung squamous carcinoma cell SW900, KRAS G12V mutant human colorectal cancer cell SW620, KRAS G13D mutant human colorectal cancer epithelial cell DLD-1, and KRAS WT human gastric cancer cell MKN1. The specific procedures were as follows:
(§3) 10 μL of each compound solution diluted in a gradient was added to corresponding wells of a 96-well low-adsorption microplate (PerkinElmer), so that the final concentrations of the test compounds in the reaction system were in a range of 10000-0.026 nM. The final concentration of DMSO was 0.2%. Then 90 µL of cells were correspondingly seeded into each well to achieve a cell density of 5×10^2 cells/well (the cell density of SW900 was 5×10^3 cells/well, and the cell density of MKN1 was 1×10^3 cells/well). In addition to test wells for the test compounds, both a DMSO control well and a medium control well were set, with the DMSO control well containing DMSO and cells and the medium well containing only a medium. After the sample loading, the 96-well low-adsorption microplate was incubated in an incubator at 37° C. with […] for 7 days. After 7 days, the microplate was taken out, and 100 μL of CTG reagent (Promega) was added to each well. The plate was incubated at room temperature for 60 m and read on a microplate reader EnVision by the chemiluminescence program. The inhibition rates of the compounds at each concentration were calculated using the formula for the percentage inhibition of cell proliferation: inhibition rate 00=(mean value of DMSO control group−single concentration reading value of compound)/(mean value of DMSO control group−mean value of medium control group)×100. Then non-linear curve fillings for logarithmic concentration-inhibition rate were performed by GraphPad Prism 8, and the IC50 values of the compounds were obtained (Table 6).

[3] = system: KRAS G12D mutant human gastric cancer cell AGS; experiment: 3D cell proliferation inhibition assay, AGS; conditions: 168 h, 3D culture, 7 days, CTG
Text: as §1, §2, §3

[4] = system: KRAS G12D mutant human metastatic pancreatic cancer cell AsPc-1; experiment: 3D cell proliferation inhibition assay, AsPc-1; conditions: ASPC1, 168 h, 3D culture, 7 days, CTG
How it was run: (§4)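 Seven-day 3D growth at 37 °C in low-adsorption wells, 5×10^2 cells/well except MKN1 (1×10^3), final compound range 10000–0.026 nM in 0.2% DMSO. CTG luminescence read-out; percent inhibition set against DMSO and medium-only wells, IC50 by curve fitting.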

[5] = system: KRAS G12C mutant human non-small cell lung cancer cell NCI-H358; experiment: 3D cell proliferation inhibition assay, NCI-H358; conditions: NCI-H358, 168 h, 3D culture, 7 days, CTG
How it was run: as §4

[6] = system: KRAS G12V mutant human lung squamous carcinoma cell SW900; experiment: 3D cell proliferation inhibition assay, SW900; conditions: SW900, 168 h, 3D culture, 7 days, CTG
Text: as §1, §2, §3

[7] = system: KRAS G13D mutant human colorectal cancer epithelial cell DLD-1; experiment: 3D cell proliferation inhibition assay, DLD-1; conditions: DLD-1, 168 h, 3D culture, 7 days, CTG
How it was run: as §4

[8] = system: KRAS WT human gastric cancer cell MKN1; experiment: 3D cell proliferation inhibition assay, MKN1; conditions: MKN-1, 168 h, 3D culture, 7 days, CTG
Text: as §1, §2, §3

[9] = system: KRAS G12V mutant human colorectal cancer cell SW620; experiment: 3D cell proliferation inhibition assay, SW620; conditions: SW-620, 168 h, 3D culture, 7 days, CTG
How it was run: as §4

T1 sequence (P01116 1-188 isoform P01116-2 G12V): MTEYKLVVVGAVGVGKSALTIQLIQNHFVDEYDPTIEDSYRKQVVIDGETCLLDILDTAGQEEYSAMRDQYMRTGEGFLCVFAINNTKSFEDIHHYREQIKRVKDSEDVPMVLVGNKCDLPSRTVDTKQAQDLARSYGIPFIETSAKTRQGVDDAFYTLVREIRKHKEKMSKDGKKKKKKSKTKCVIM

DC50 [1]	Dmax [1]	IC50 [2]	IC50 [3]	IC50 [4]	IC50 [5]	IC50 [6]	IC50 [7]	IC50 [8]	IC50 [9]	Structure (SMILES)
≤ 50 nM	80 to 100%	100 to 500 nM	≤ 50 nM	100 to 500 nM	≤ 50 nM	≤ 50 nM		≤ 50 nM	15.3 nM	CCc1cccc2cc(O)cc(-c3ccc4c(N5CCC[C@@](C)(O)C5)nc(OCC5(CN6CCN(CC7CCC8(CC7)CCN(C(=O)c7ccc(Cl)c(N9CCC(=O)NC9=O)c7)CC8)CC6)CC5)nc4c3F)c12 [Example 12, (R)-1-(2-chloro-5-(9-((4-((1-(((7-(8-ethyl-3-hydroxynaphthalen-1-yl)-8-fluoro-4-(3-hydroxy-3-methylpiperidin-1-yl)quinazolin-2-yl)oxy)methyl)cyclopropyl)methyl)piperazin-1-yl)methyl)-3-azaspiro[5.5]undecane-3-carbonyl)phenyl)dihydropyrimidine-2,4(1H,3H)-dione]
≤ 50 nM	80 to 100%	100 to 500 nM	50 to 100 nM	≤ 50 nM	100 to 500 nM	≤ 50 nM		≤ 50 nM	9.33 nM	C#Cc1cccc2cc(O)cc(-c3ccc4c(N5CCC[C@@](C)(O)C5)nc(OCC5(CN6CCN(CC7CCC8(CC7)CCN(C(=O)c7ccc(OC)c(N9CCC(=O)NC9=O)c7)CC8)CC6)CC5)nc4c3F)c12 [Example 24, (R)-1-(5-(9-((4-((1-(((7-(8-ethynyl-3-hydroxynaphthalen-1-yl)-8-fluoro-4-(3-hydroxy-3-methylpiperidin-1-yl)quinazolin-2-yl)oxy)methyl)cyclopropyl)methyl)piperazin-1-yl)methyl)-3-azaspiro[5.5]undecane-3-carbonyl)-2-methoxyphenyl)dihydropyrimidine-2,4(1H,3H)-dione]
≤ 50 nM	80 to 100%	50 to 100 nM	≤ 50 nM	≤ 50 nM	100 to 500 nM	≤ 50 nM		≤ 50 nM	5.54 nM	C#Cc1c(F)ccc2cc(O)cc(-c3ccc4c(N5CCC[C@@](C)(O)C5)nc(OCC5(CN6CCN(CC7CCC8(CC7)CCN(C(=O)c7ccc(OC)c(N9CCC(=O)NC9=O)c7)CC8)CC6)CC5)nc4c3F)c12 [Example 21, (R)-1-(5-(9-((4-((1-(((7-(8-ethynyl-7-fluoro-3-hydroxynaphthalen-1-yl)-8-fluoro-4-(3-hydroxy-3-methylpiperidin-1-yl)quinazolin-2-yl)oxy)methyl)cyclopropyl)methyl)piperazin-1-yl)methyl)-3-azaspiro[5.5]undecane-3-carbonyl)-2-methoxyphenyl)dihydropyrimidine-2,4(1H,3H)-dione]

More lines, now with the values behind:

Structure (SMILES)	DC50 [1]	Dmax [1]	IC50 [2]	IC50 [3]	IC50 [4]	IC50 [5]	IC50 [6]	IC50 [7]	IC50 [8]	IC50 [9]
C#Cc1c(F)ccc2cc(O)cc(-c3ncc4c(N5CCC[C@@](C)(O)C5)nc(OCC5(CN6CCC(CCOCC7CCN(C(=O)c8ccc(Cl)c(N9CCC(=O)NC9=O)c8)CC7)CC6)CC5)nc4c3F)c12 [Example 8, (R)-1-(2-chloro-5-(4-((2-(1-((1-(((7-(8-ethynyl-7-fluoro-3-hydroxynaphthalen-1-yl)-8-fluoro-4-(3-hydroxy-3-methylpiperidin-1-yl)pyrido[4,3-d]pyrimidin-2-yl)oxy)methyl)cyclopropyl)methyl)piperidin-4-yl)ethoxy)methyl)piperidine-1-carbonyl)phenyl)dihydropyrimidine-2,4(1H,3H)-dione]	≤ 50 nM	80 to 100%	50 to 100 nM	≤ 50 nM	≤ 50 nM	≤ 50 nM	≤ 50 nM	≤ 50 nM	≤ 50 nM	
CCc1c(F)ccc2cc(O)cc(-c3ncc4c(N5CCC[C@@](C)(O)C5)nc(OCC5(CN6CCC(CCOCC7CCN(C(=O)c8ccc(Cl)c(N9CCC(=O)NC9=O)c8)CC7)CC6)CC5)nc4c3F)c12 [Example 5, (R)-1-(2-chloro-5-(4-((2-(1-((1-(((7-(8-ethyl-7-fluoro-3-hydroxynaphthalen-1-yl)-8-fluoro-4-(3-hydroxy-3-methylpiperidin-1-yl)pyrido[4,3-d]pyrimidin-2-yl)oxy)methyl)cyclopropyl)methyl)piperidin-4-yl)ethoxy)methyl)piperidine-1-carbonyl)phenyl)dihydropyrimidine-2,4(1H,3H)-dione]	≤ 50 nM	80 to 100%	≤ 50 nM	≤ 50 nM	≤ 50 nM	≤ 50 nM	50 to 100 nM	≤ 50 nM	≤ 50 nM	
C#Cc1c(F)ccc2cc(O)cc(-c3ncc4c(N5CCC[C@@](C)(O)C5)nc(OCC5(CN6CCN(CCCC7CCN(C(=O)c8ccc(Cl)c(N9CCC(=O)NC9=O)c8)CC7)CC6)CC5)nc4c3F)c12 [Example 4, (R)-1-(2-chloro-5-(4-(3-(4-((1-(((7-(8-ethynyl-7-fluoro-3-hydroxynaphthalen-1-yl)-8-fluoro-4-(3-hydroxy-3-methylpiperidin-1-yl)pyrido[4,3-d]pyrimidin-2-yl)oxy)methyl)cyclopropyl)methyl)piperazin-1-yl)propyl)piperidine-1-carbonyl)phenyl)dihydropyrimidine-2,4(1H,3H)-dione]	≤ 50 nM	80 to 100%	100 to 500 nM	≤ 50 nM	50 to 100 nM	≤ 50 nM	≤ 50 nM		≤ 50 nM	
C#Cc1c(F)ccc2cc(O)cc(-c3ncc4c(N5CCC[C@@](C)(O)C5)nc(OCC5(CN6CCN(CC7CCC8(CC7)CCN(C(=O)c7ccc9c(c7)C(=O)N(C7CCC(=O)NC7=O)C9)CC8)CC6)CC5)nc4c3F)c12 (stereo partly drawn) [Example 35, 3-(6-(9-((4-((1-(((7-(8-ethynyl-7-fluoro-3-hydroxynaphthalen-1-yl)-8-fluoro-4-((R)-3-hydroxy-3-methylpiperidin-1-yl)pyrido[4,3-d]pyrimidin-2-yl)oxy)methyl)cyclopropyl)methyl)piperazin-1-yl)methyl)-3-azaspiro[5.5]undecane-3-carbonyl)-1-oxoisoindolin-2-yl)piperidine-2,6-dione]	≤ 50 nM	80 to 100%	500 to 1000 nM	≤ 50 nM	≤ 50 nM	≤ 50 nM	100 to 500 nM		≤ 50 nM	
C#Cc1c(F)ccc2cc(O)cc(-c3ccc4c(N5CCC[C@@](C)(O)C5)nc(OCC5(CN6CCC(CCOCC7CCN(C(=O)c8ccc(C)c(N9CCC(=O)NC9=O)c8)CC7)CC6)CC5)nc4c3F)c12 [Example 34, (R)-1-(5-(4-((2-(1-((1-(((7-(8-ethynyl-7-fluoro-3-hydroxynaphthalen-1-yl)-8-fluoro-4-(3-hydroxy-3-methylpiperidin-1-yl)quinazolin-2-yl)oxy)methyl)cyclopropyl)methyl)piperidin-4-yl)ethoxy)methyl)piperidine-1-carbonyl)-2-methylphenyl)dihydropyrimidine-2,4(1H,3H)-dione]	≤ 50 nM	80 to 100%	100 to 500 nM	≤ 50 nM	≤ 50 nM	50 to 100 nM	≤ 50 nM		≤ 50 nM	
